Here are results for three compounds from patent US20070010525A1, “Method and compositions for modulating neuropeptide hormone secretion” (priority 2005, published 2007).

For assay [1], the system named is posterior pituitary glands. Put plainly: Oxytocin release from whole posterior pituitary glands (enzyme immunoassay). It is filed as cell-based, rats. The method, then: Posterior pituitary. Experiments were performed on posterior pituitary glands removed from rats of either sex, ranging in age from 1-3 months. Animals were rendered unconscious by inhalation of CO2, and killed by decapitation. Glands were removed rapidly to maintain tissue health, and transferred to physiological saline (in mM: 125 NaCl, 4 KCl, 26 NaHCO3, 1.25 NaH2PO4, 2 CaCl2, 1 MgCl2, 10 glucose) bubbled with 95% O2/5% CO2 (Jackson et al., 1991, Action potential broadening and frequency-dependent facilitation of calcium signals in pituitary nerve terminals. Proc. Roy. Soc. Lond. 88:380-384). For oxytocin release experiments the pituitary was kept intact. For electrophysiological recordings, slices of posterior pituitary were cut at 70 μm with a vibratome and maintained in physiological saline. Oxytocin release. Whole pituitary glands with attached axon bundle were placed in a chamber perfused with oxygenated physiological saline. Perfusion was stopped at ˜15 min intervals during measurements, when the physiological saline was substituted with a solution of a similar composition, but with the addition of 20 mM HEPES and NaHCO3, and NaH2PO4 reduced to zero. The pH was adjusted to 7.3 with NaOH. Basal release was measured after a 5 min waiting period (immediately before the stimulus application). The axon bundle was stimulated via a large-diameter, monopolar extracellular glass electrode. Oxytocin release was evoked by a series of 5 trains of 0.2 msec, 0.2 mA current pulses with a frequency of 25 Hz and a duration of 10 seconds. Trains were applied at 1 min intervals. Evoked release was measured 5 minutes after the end of stimulation by gently mixing the bath with a micropipette and collecting 10-20 μL samples in the vicinity of the tissue. Three separate samples were collected for each measurement (including basal release control). Perfusion of the oxygenated physiological saline was restored immediately after sample collection and sildenafil was added to the bath solution for 30-60 min. Recordings of the sildenafil effect on basal and evoked release were then repeated as described above. To control for possible rundown of release, measurements of sildenafil effects were in some cases substituted by the second control measurements. Oxytocin was measured in collected fluid using the Correlate-EIA enzyme immunoassay kit (Assay Designs, Ann Arbor, Mich.). Oxytocin concentration was inversely proportional to the yellow color generated by the immunoassay and was scanned into the computer using an automated micro plate reader at 405 nm. Actual oxytocin concentration was determined with a standard curve measured for each sample plate.

For another assay, the system named is pituitary nerve terminal. The note with it: after 5 or 10 seconds of high frequency stimulation; control ~30%; cited from earlier work.
Assay [2] concerns BK channels in pituitary nerve terminals. Put plainly: Patch clamp recordings of potassium current in posterior pituitary slices after photolysis of caged cGMP. Type of assay: cell-based, rats. The note with it: slices bathed in 15 μM sildenafil, control recovered in about 3 minutes. The method, then: Posterior pituitary. Experiments were performed on posterior pituitary glands removed from rats of either sex, ranging in age from 1-3 months. Animals were rendered unconscious by inhalation of CO2, and killed by decapitation. Glands were removed rapidly to maintain tissue health, and transferred to physiological saline (in mM: 125 NaCl, 4 KCl, 26 NaHCO3, 1.25 NaH2PO4, 2 CaCl2, 1 MgCl2, 10 glucose) bubbled with 95% O2/5% CO2 (Jackson et al., 1991, Action potential broadening and frequency-dependent facilitation of calcium signals in pituitary nerve terminals. Proc. Roy. Soc. Lond. 88:380-384). For oxytocin release experiments the pituitary was kept intact. For electrophysiological recordings, slices of posterior pituitary were cut at 70 μm with a vibratome and maintained in physiological saline. Electrophysiology. Recordings of K^+ current were made with patch pipettes filled with (in mM) 130 KCl, 10 NaCl, 10 HEPES, 4 Mg-ATP, 0.3 GTP, 5 EGTA, pH 7.3. Individual nerve terminals were identified in an upright DIC microscope, Jackson, 1993. Passive current flow and morphology in the terminal arborizations of the posterior pituitary. J. Neurophysiol. 69, 692-702, and voltage or current clamped with an EPC-7 patch clamp amplifier. […] The component of potassium current corresponding to BK channels (seen at the end of a 200 msec voltage step from −80 to 50 mV) was determined for each pulse. […]
A general note: In patch-clamp work, channel activity is measured electrically.

[3] abbreviates: 7-NI 100 μM with sildenafil 10 μM.

For the compound `O=[N+]([O-])c1cccc2cn[nH]c12` [7-NI, 7-nitorindazol], in assay [1] (setting [3]), the “effect on sildenafil-induced increase in basal oxytocin release” value is listed as “blocked” and the “effect on sildenafil-induced increase in evoked oxytocin release” value is recorded as “blocked”.
For the compound `Nc1nc2c(ncn2[C@@H]2O[C@@H]3COP(=O)(O)O[C@H]3[C@H]2O)c(=O)[nH]1` [cGMP], the “success rate of stimulus pulses evoking action potentials” value in the assay with pituitary nerve terminal is about 60%.
As to `CCCc1nn(C)c2c(=O)[nH]c(-c3cc(S(=O)(=O)N4CCN(C)CC4)ccc3OCC)nc12` [Sildenafil, 5-[2-ethoxy-5-(4-methyl-1-piperazinylsulphonyl)phenyl]-1-methyl-3-n-propyl-1,6-dihydro-7H-pyrazolo [4,3-d]pyrimidin-7-one], the basal oxytocin release result in assay [1] (sildenafil 10 μM, 30-60 min in bath) is “insignificant increase”. In addition, the evoked oxytocin release entry in assay [1] (sildenafil 10 μM, electrical stimulation of axon bundle) is “large and significant increase”. The “recovery of the cGMP-induced increase in potassium current” value in assay [2] was “greatly slowing the recovery”; in assay [2] (listed as sildenafil) it was “failed to recover”.
